Measured values from PubChem BioAssay AID256 (DTP/NCI, 2004).
Several values for one entry are separate records, joined by “and”; a condition that tells them apart may be missing. Equal entries are not always repeated. Inconclusive results and toxic doses are left out. How the source made its calls: active means survival T/C of 150% or more; inactive means T/C below 125% in these data.

Test system: CD2F1 mice, L1210 leukemia ip, survival T/C
Assay: NCI In Vivo Anticancer Drug Screen. Data for tumor model L1210 Leukemia (intraperitoneal) in CD2F1 (CDF1) mice
Conditions: higher = longer survival
In short: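 Transplantable tumor in mice; compound-treated vs vehicle-treated groups. Read-out = treated/control ratio of the measured endpoint.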

[1] = endpoint: median survival time, dose: 25.0 mg/kg/injection, schedule: Q01DX009 (ip), vehicle: saline with Tween-80
[2] = endpoint: median survival time, dose: 50.0 mg/kg/injection, schedule: Q01DX009 (ip), vehicle: saline with Tween-80
[3] = endpoint: median survival time, dose: 100.0 mg/kg/injection, schedule: Q01DX009 (ip), vehicle: saline with Tween-80
[4] = endpoint: median survival time, dose: 200.0 mg/kg/injection, schedule: Q01DX009 (ip), vehicle: saline with Tween-80
[5] = endpoint: mean survival time, dose: 6.25 mg/kg/injection, schedule: Q01DX009 (ip), vehicle: saline
[6] = endpoint: mean survival time, dose: 12.5 mg/kg/injection, schedule: Q01DX009 (ip), vehicle: saline
[7] = endpoint: mean survival time, dose: 50.0 mg/kg/injection, schedule: Q01DX009 (ip), vehicle: saline
[8] = endpoint: mean survival time, dose: 100.0 mg/kg/injection, schedule: Q01DX009 (ip), vehicle: saline
[9] = endpoint: mean survival time, dose: 200.0 mg/kg/injection, schedule: Q01DX009 (ip), vehicle: saline
[10] = endpoint: mean survival time, dose: 100.0 mg/kg/injection, schedule: Q01DX001 (ip), vehicle: saline with Tween-80
[11] = endpoint: mean survival time, dose: 200.0 mg/kg/injection, schedule: Q01DX001 (ip), vehicle: saline with Tween-80
[12] = endpoint: mean survival time, dose: 400.0 mg/kg/injection, schedule: Q01DX001 (ip), vehicle: saline with Tween-80
[13] = endpoint: mean survival time, dose: 100.0 mg/kg/injection, schedule: Q04DX003 (ip), vehicle: saline
[14] = endpoint: mean survival time, dose: 200.0 mg/kg/injection, schedule: Q04DX003 (ip), vehicle: saline
[15] = endpoint: mean survival time, dose: 400.0 mg/kg/injection, schedule: Q04DX003 (ip), vehicle: saline
[16] = endpoint: mean survival time, dose: 100.0 mg/kg/injection, schedule: Q01DX009 (ip), vehicle: saline with Tween-80
[17] = endpoint: mean survival time, dose: 200.0 mg/kg/injection, schedule: Q01DX009 (ip), vehicle: saline with Tween-80
[18] = endpoint: mean survival time, dose: 25.0 mg/kg/injection, schedule: Q04DX003 (ip), vehicle: saline
[19] = endpoint: mean survival time, dose: 50.0 mg/kg/injection, schedule: Q04DX003 (ip), vehicle: saline
[20] = endpoint: mean survival time, dose: 100.0 mg/kg/injection, schedule: Q04DX002 (ip), vehicle: saline with Tween-80
[21] = endpoint: mean survival time, dose: 200.0 mg/kg/injection, schedule: Q04DX002 (ip), vehicle: saline with Tween-80
[22] = endpoint: mean survival time, dose: 400.0 mg/kg/injection, schedule: Q04DX002 (ip), vehicle: saline with Tween-80

Measured: T/C

CC(=O)Oc1[nH]c(=O)c2cccc3c2c1CCC3
inactive: [1] 106 % of control | [2] 104 % of control | [3] 100 % of control and 104 % of control | [4] 97 % of control and 103 % of control | endpoint: median survival time, dose: 400.0 mg/kg/injection, schedule: Q01DX009 (ip), vehicle: saline with Tween-80 97 % of control and 108 % of control

Cn1cccnc1=O
inactive: endpoint: mean survival time, dose: 100.0 mg/kg/injection, schedule: Q04DX002 (ip), vehicle: saline 106 % of control | endpoint: mean survival time, dose: 200.0 mg/kg/injection, schedule: Q04DX002 (ip), vehicle: saline 95 % of control | endpoint: mean survival time, dose: 400.0 mg/kg/injection, schedule: Q04DX002 (ip), vehicle: saline 106 % of control

CC[N](CC)[Ge]([CH2]C)[CH2]C.CC[N](CC)[Ge]([CH2]C)[CH2]C
inactive: endpoint: mean survival time, dose: 3.12 mg/kg/injection, schedule: Q01DX009 (ip), vehicle: saline 98 % of control | endpoint: mean survival time, dose: 3.12 mg/kg/injection, schedule: Q01DX009 (ip), vehicle: suspension in saline 98 % of control | [5] 98 % of control | endpoint: mean survival time, dose: 6.25 mg/kg/injection, schedule: Q01DX009 (ip), vehicle: suspension in saline 114 % of control | [6] 98 % of control | endpoint: mean survival time, dose: 12.5 mg/kg/injection, schedule: Q01DX009 (ip), vehicle: suspension in saline 106 % of control | endpoint: mean survival time, dose: 25.0 mg/kg/injection, schedule: Q01DX009 (ip), vehicle: saline 101 % of control | endpoint: mean survival time, dose: 25.0 mg/kg/injection, schedule: Q01DX009 (ip), vehicle: suspension in saline 97 % of control | [7] 110 % of control | endpoint: mean survival time, dose: 50.0 mg/kg/injection, schedule: Q01DX009 (ip), vehicle: suspension in saline 101 % of control

N/C(CCSc1ccccc1N=Cc1ccccc1O)=N/O
inactive: endpoint: mean survival time, dose: 3.13 mg/kg/injection, schedule: Q01DX009 (ip), vehicle: olive oil, sesame oil, peanut oil 95 % of control | endpoint: mean survival time, dose: 6.25 mg/kg/injection, schedule: Q01DX009 (ip), vehicle: olive oil, sesame oil, peanut oil 94 % of control | endpoint: mean survival time, dose: 12.5 mg/kg/injection, schedule: Q01DX009 (ip), vehicle: olive oil, sesame oil, peanut oil 98 % of control | endpoint: mean survival time, dose: 25.0 mg/kg/injection, schedule: Q01DX009 (ip), vehicle: olive oil, sesame oil, peanut oil 100 % of control | endpoint: mean survival time, dose: 50.0 mg/kg/injection, schedule: Q01DX009 (ip), vehicle: olive oil, sesame oil, peanut oil 100 % of control

CC(=O)[O][Hg][c]1c(C)c(C)[c]([Hg][O]C(C)=O)c(C)c1C
inactive: endpoint: mean survival time, dose: 25.0 mg/kg/injection, schedule: Q04DX002 (ip), vehicle: saline with Tween-80 87 % of control | endpoint: mean survival time, dose: 50.0 mg/kg/injection, schedule: Q04DX002 (ip), vehicle: saline with Tween-80 87 % of control

CCCCC(C(=O)O)c1ccccc1 (stereo not given)
inactive: [8] 98 % of control | [9] 98 % of control | endpoint: mean survival time, dose: 400.0 mg/kg/injection, schedule: Q01DX009 (ip), vehicle: saline 101 % of control

O=C1c2ccccc2CCC1(Br)Cc1ccccc1 (stereo not given)
inactive: [10] 98 % of control | [11] 96 % of control | [12] 94 % of control

CN(C)CCCNCCCCNCCCN(C)C
inactive: [8] 102 % of control | [13] 96 % of control | [9] 102 % of control | [14] 101 % of control | [15] 106 % of control

CCOC(=O)C1=C(C)O/C(=C/c2cccc(Cl)c2)C1=O
inactive: [2] 107 % of control | [3] 110 % of control | [4] 112 % of control

Nc1cc(C(F)(F)F)ccc1/C(=C/c1ccc(Cl)cc1)C(=O)O
inactive: endpoint: mean survival time, dose: 75.0 mg/kg/injection, schedule: Q04DX003 (ip), vehicle: saline 103 % of control | endpoint: mean survival time, dose: 150.0 mg/kg/injection, schedule: Q04DX003 (ip), vehicle: saline 102 % of control

S=C(Oc1ccc(Cl)cc1)Sc1ccc(Cl)cc1
inactive: endpoint: mean survival time, dose: 100.0 mg/kg/injection, schedule: Q04DX002 (ip), vehicle: Klucel (hydroxypropylcellulose) (HPC) 101 % of control | endpoint: mean survival time, dose: 200.0 mg/kg/injection, schedule: Q04DX002 (ip), vehicle: Klucel (hydroxypropylcellulose) (HPC) 89 % of control | endpoint: mean survival time, dose: 400.0 mg/kg/injection, schedule: Q04DX002 (ip), vehicle: Klucel (hydroxypropylcellulose) (HPC) 97 % of control

CCCC1OC(C)CC(C)(C)O1 (stereo not given)
inactive: [7] 94 % of control | [8] 110 % of control | [9] 90 % of control

CC12CCC3C(CCC(CC(=O)O)C3(C)CC(=O)O)C1CCC2=O (stereo not given)
inactive: [10] 98 % of control | [11] 97 % of control | [12] 97 % of control

Nc1cc(N)c2cccnc2c1O
inactive: [5] 101 % of control | [6] 114 % of control

CCCCCCCCCCCCCCCc1cc(O)ccc1[N+](=O)[O-]
inactive: [16] 111 % of control | [17] 115 % of control | endpoint: mean survival time, dose: 400.0 mg/kg/injection, schedule: Q01DX009 (ip), vehicle: saline with Tween-80 96 % of control

COC(=O)c1c[nH]c(=S)n1C(C)c1ccccc1 (stereo not given)
inactive: [16] 105 % of control | endpoint: mean survival time, dose: 100.0 mg/kg/injection, schedule: Q04DX003 (ip), vehicle: saline with Tween-80 93 % of control | [17] 106 % of control | endpoint: mean survival time, dose: 200.0 mg/kg/injection, schedule: Q04DX003 (ip), vehicle: saline with Tween-80 95 % of control | endpoint: mean survival time, dose: 400.0 mg/kg/injection, schedule: Q04DX003 (ip), vehicle: saline with Tween-80 101 % of control

CCOC(=O)Nc1cc2c(c(N)n1)NC(CN(C)c1ccccc1)CN2 (stereo not given)
inactive: endpoint: mean survival time, dose: 100.0 mg/kg/injection, schedule: Q01DX001 (ip), vehicle: Klucel (hydroxypropylcellulose) (HPC) 94 % of control | endpoint: mean survival time, dose: 200.0 mg/kg/injection, schedule: Q01DX001 (ip), vehicle: Klucel (hydroxypropylcellulose) (HPC) 103 % of control | endpoint: mean survival time, dose: 400.0 mg/kg/injection, schedule: Q01DX001 (ip), vehicle: Klucel (hydroxypropylcellulose) (HPC) 110 % of control

O=C(CN1CCOCC1)Nc1nc(-c2ccc(Cl)cc2)cs1
inactive: endpoint: median survival time, dose: 12.5 mg/kg/injection, schedule: Q01DX009 (ip), vehicle: saline with Tween-80 102 % of control | [1] 98 % of control | [2] 98 % of control | [3] 105 % of control | [4] 93 % of control

N=C(N)SC(c1ccccc1)c1ccccc1
inactive: [18] 100 % of control | [19] 94 % of control | [13] 102 % of control

CCCCCC(=O)N1CCCCCC1
inactive: [13] 96 % of control | [14] 98 % of control | [15] 98 % of control

Cc1nc(C)c(Br)s1
inactive: [18] 112 % of control | [19] 104 % of control | [13] 106 % of control

CC1(C)COC(c2ccccc2Br)=N1
inactive: [10] 109 % of control | [11] 101 % of control | [12] 101 % of control

C/C(C(=O)O)=C(\C)c1ccccc1
inactive: [20] 92 % of control | [21] 103 % of control | [22] 103 % of control

O=C(O)CC(=O)O.OC(CN=Cc1ccccc1)CN=Cc1ccccc1.[Pt] (stereo not given)
inactive: endpoint: median survival time, dose: 10.0 mg/kg/injection, schedule: Q04DX003 (ip), vehicle: distilled water + Tween-80 103 % of control | endpoint: median survival time, dose: 20.0 mg/kg/injection, schedule: Q04DX003 (ip), vehicle: distilled water + Tween-80 104 % of control | endpoint: median survival time, dose: 40.0 mg/kg/injection, schedule: Q04DX003 (ip), vehicle: distilled water + Tween-80 102 % of control | endpoint: median survival time, dose: 80.0 mg/kg/injection, schedule: Q04DX003 (ip), vehicle: distilled water + Tween-80 116 % of control and 105 % of control | endpoint: median survival time, dose: 160.0 mg/kg/injection, schedule: Q04DX003 (ip), vehicle: distilled water + Tween-80 108 % of control | endpoint: median survival time, dose: 320.0 mg/kg/injection, schedule: Q04DX003 (ip), vehicle: distilled water + Tween-80 109 % of control

Nc1ccnc(SCCCOc2ccccc2)n1
inactive: [20] 104 % of control | [21] 101 % of control | [22] 97 % of control

Oc1c(Br)cc(Br)cc1/C=N/c1nc(-c2ccccc2)cs1.Oc1c(Br)cc(Br)cc1/C=N/c1nc(-c2ccccc2)cs1.[Co]
inactive: endpoint: mean survival time, dose: 25.0 mg/kg/injection, schedule: Q01DX001 (ip), vehicle: saline 100 % of control | endpoint: mean survival time, dose: 50.0 mg/kg/injection, schedule: Q01DX001 (ip), vehicle: saline 100 % of control | endpoint: mean survival time, dose: 100.0 mg/kg/injection, schedule: Q01DX001 (ip), vehicle: saline 87 % of control
